The text below walks through data of a melting point compilation (Tetko et al.; mined from patent text by program, amines drawn as free bases though some values may be those of a salt).

A word on the melting point: it is the temperature of the solid-liquid transition. `COc1ccccc1-c1nc2cc(NC(=O)OC(C)(C)C)ccn2n1` gave a melting point of 203 °C.
Consider `Cc1c(OCC(=O)O)cc2c(c1Cl)C(=O)C1(CCCC1)C2=O`, for which the melting point was in the range of 204 to 205 °C.
As for `NC(=O)Cc1ccc(-c2ccc(C(CC3CCOCC3)c3ccc(S(=O)(=O)C4CC4)cc3)[nH]2)nc1` (centres undefined), the figure is 151 to 153 °C; as for `C#CCN1N=C(c2ccc(Cl)cc2)CN(C)C1=O`, 159 to 160 °C.
As for `COc1ccc(SCC(=O)c2ccccc2)cc1C`, the figure is 41 to 43 °C; as for `CN(C)c1ccc(NC(=O)c2cc3cc([Si](C)(C)C)ccc3n2Cc2cccc(F)c2)cn1`, 204 to 205 °C.
The figure for `O=c1c(Cl)c(Cl)cnn1-c1cc(C(F)(F)F)cc(C(F)(F)F)c1` is 255 to 262 °C.
The compound `CC(=O)OC(=O)c1cc(CCl)ccc1O` showed a melting point of 119 to 121 °C.
The compound `O=C(O)CCC(=O)NCc1ccccc1` displayed a melting point of 138 °C.
The figure for `CCC1(CCCCCl)C(=O)Nc2ccccc21` (centres undefined) is 104 to 105 °C; for `Cc1cccc(CNc2ncnc3nc[nH]c23)c1O` it is 276 to 277 °C.
Take `COC(=O)c1cc(O)c2cc(N3CCOCC3)ccc2c1`: the melting point fell in the range of 231 to 234 °C.
As for `CCCCOc1ncc(C(=O)N[C@@H]2CCCC[C@H]2O)cc1-c1cc(C(F)(F)F)ccc1F`, the figure is 172 to 178 °C; as for `N#Cc1ccc(N(c2ccccc2)n2ccnc2)cc1`, 162 °C.
For the compound `CS(=O)(=O)Nc1cccc(Nc2nc(N3CCCC3)c3nc[nH]c3n2)c1`, the melting point was 164 to 168 °C.
As for `COCc1nc2c([N+](=O)[O-])cc(Br)cc2n1C`, the figure is 145 to 147 °C.
Regarding `CC(=O)c1ccc(-c2nccn2C)cc1`, the melting point is 88 to 93 °C.
In turn, `COc1cc(-c2nc(N)sc2SCC2CCCC2)c(OC)cc1C` returned a melting point of 88 to 89 °C.
For `Cc1ncccc1C#N`, the melting point came to 55 °C.
As for `OC(CCc1ccc(F)cc1)c1cnc2sc3c(n12)CCCCC3` (centres undefined), the figure is 144 to 146 °C; as for `COc1cc(NC(=O)NC2CC(O)CC2N2CCC(Cc3ccc(Cl)cc3)CC2)cc(OC)c1OC` (centres undefined), 81 to 84 °C.
As for `Cc1ccc2c(=O)nc(-c3cccc(CCC(=O)O)n3)sc2c1`, the figure is 222 °C.
The figure for `CN(C)C(=O)C(C)(C)n1cc(Br)c(-c2ccccc2)n1` is 122 to 124 °C.
On to `CCOC(=O)c1ccc(-c2cccc(CN)n2)cc1`, for which the melting point lay within 141 to 143 °C.
The figure for `CCOC(=O)c1c(C)nc(-c2ccccc2)nc1-c1cc([N+](=O)[O-])ccc1S(C)=O` (centres undefined) is 130 to 132 °C.
The figure for `CCNC(=O)/C=C/c1cnoc1-c1ccccc1` is 156 to 157 °C; for `O=C(O)CCC(=O)c1ccc2oc3ccccc3c2c1` it is 186 to 188 °C; for `C=CCOc1ccccc1-c1nc2nc(SC)nnc2c(=O)[nH]1` it is 238 to 239 °C.
The figure for `Nc1nc(NCCc2ccc(O)cc2)nc2nc(-c3ccco3)nn12` is 225 to 227 °C.
As for `CC(C)NCC(O)COc1nccnc1Cl` (centres undefined), the melting point lay within 99 to 100 °C.
The figure for `CCCCCCCCCCCCCCc1c[nH]c(C(=O)O)c1` is 148 to 150 °C; for `O=C1CCc2cc(OCc3ccccc3)c(O)cc21` it is 140 to 142 °C.
Turning to `COC(=O)c1cncn1C1CCCc2ccccc21` (centres undefined), the melting point was determined as 63 °C.
Consider `Cc1nc(-c2ccccc2)[nH]c(=O)c1C`, for which the melting point fell in the range of 205 to 207 °C.
The compound `CC(C)COc1ccc(F)cc1OCCOS(C)(=O)=O` gave a melting point of 53 to 55 °C.
With `Cc1ncc(C=CC=CC(=O)O)s1`, the melting point fell in the range of 220 to 222 °C.
The figure for `COc1cc(Nc2nccc(-c3ccc(N4CCNCC4)nc3)n2)cc(OC)c1` is 176 to 177 °C; for `Nc1cc(CCC(=O)Nc2ccc(Cl)cc2Cl)ccc1O` it is 130 to 131 °C; for `S=c1[nH]ccn1C1Cc2ccccc2C1` it is 210 to 211 °C.
